From PMC3850926, “Evaluation of the adverse event profile and pharmacodynamics of toceranib phosphate administered to dogs with solid tumors at doses below the maximum tolerated dose” (BMC Veterinary Research, 2013)
Like-named read-outs stand apart in the source and are kept apart here.

Key:
[1] = system: AGASACA, thyroid carcinomas, head and neck carcinomas, nasal tumors; design: method as in PMID 22236194; details: median dose 2.8 mg/kg, cited from earlier work
dogs with solid tumors = assay: Assessment of adverse events (VCOG-CTCAE); format: in vivo, dog
Description: All dogs were placed on famotidine at 0.5-1 mg/kg once per day at study initiation and owners were instructed to administer the toceranib in the morning with food. […] Dogs were evaluated for AEs on days 0, 7, 14, and 30 of study, as well as at interim time points as needed. AEs were defined and graded according to the published VCOG-CTCAE criteria. Disease progression or signs and symptoms definitely related to disease were not considered AEs.

dogs with MCT = details: dog, in vivo, cited from earlier work
[2] = system: target receptor tyrosine kinases; design: method as in PMID 12538485; details: established in rodent studies; cited from earlier work
[3] = Toceranib plasma concentrations (LC-MS/MS) in dogs with solid tumors; format: in vivo, dog; details: for Cmax: dog, plasma, oral
Description: A total of 40 dogs were enrolled in this study, with dogs initially assigned to toceranib at 2.5 mg/kg or 2.75 mg/kg EOD. All dogs were placed on famotidine at 0.5-1 mg/kg once per day at study initiation and owners were instructed to administer the toceranib in the morning with food. Physical examination, routine bloodwork (CBC, biochemistry profile) and blood sampling for assessment of toceranib and VEGF plasma concentrations was performed pretreatment and on days 0, 7, 14 and 30 of treatment. […] Owners of dogs that experienced CR, PR, or SD at study day 30 were offered the option of continuing toceranib administration for an additional 6 months (provided at no cost), although patient data was not officially captured beyond day 30.
Blood was collected into EDTA tubes and centrifuged at 3000 × g for 10 minutes. Plasma was then collected and split evenly into two portions in cryovials, then stored at -80°C until analysis was performed for toceranib and VEGF concentrations.
Toceranib was quantitated in plasma samples using the method previously described. Briefly, 50 μL aliquots of plasma were fortified with an internal standard (IS), a deuterated toceranib analog. Toceranib and the IS were extracted from the plasma by protein precipitation using acetonitrile. The analyte and IS are light sensitive and undergo photoisomerization when exposed to light. Therefore, the 96-well plates were protected from light by wrapping the bottom and sides with foil and securing with adhesive tape. Calibration standards (1 to 1000 ng/mL) and quality control (QC) samples were prepared with separate weighing of toceranib reference material (Pfizer, Kalamazoo, MI, 98.1% purity). Standard and QC solutions were prepared by serially diluting a stock solution (100 μg/mL in methanol) into control canine plasma so that no standard or QC sample contained more that 1% methanol. Study samples were analyzed as single replicates.
The prepared samples were injected onto a Zorbax StableBond CN column and elution of toceranib and the IS accomplished with an acetonitrile:15 mM ammonium formate solution (pH 3.25) 30/70 v/v mobile phase with a 80/20 v/v rinse for 2.3 minutes at 5 minutes after each injection. Detection was accomplished using MS/MS using a Sciex 4000 triple-quadrupole mass spectrometer with Turboionspray ionization source (MDS Sciex, Toronto, Canada). Transition ions of m/z 397.2 → 283.2 for toceranib and 401.3 → 283.2 for the IS were used. The standard curves were generated using peak area ratios of toceranib to the IS and a 1/concentration^2 weighted quadratic regression. Toceranib concentrations were determined by interpolation over the quantitation range of 1.00 ng/mL to 1000 ng/mL.

[4] = number of AEs, 40 dogs, 2.4-2.9 mg/kg EOD, 30 days

Compound: Cc1[nH]c(/C=C2\C(=O)Nc3ccc(F)cc32)c(C)c1C(=O)NCCN1CCCC1 [toceranib, Toceranib phosphate]
- clinical benefit rate (CR + PR + SD) [1]: exceeding 80%
- objective response rates ([1]; varied by tumor type): 25-75%
- grade 3 or 4 GI adverse events (dogs with solid tumors; 2.4-2.9 mg/kg EOD): no grade 3 or 4 GI adverse events
- dogs with increased BUN without concomitant increase in creatinine (dogs with solid tumors; 6 had concurrent gastrointestinal upset): 9 dogs
- dogs with grade 1 anemia (dogs with solid tumors; 6 had mild anemia of chronic disease before treatment): Thirteen
- clinical evidence of hepatotoxicity (dogs with solid tumors; 40 dogs, 30 days): no dogs
- dogs that developed grade 1 anorexia (number) (dogs with solid tumors; 40 dogs, 30 days): Thirteen
- dogs that developed grade 1 anorexia (percent) (dogs with solid tumors; 40 dogs, 30 days): 32.5%
- dogs that developed grade 1 diarrhea (number) (dogs with solid tumors; 40 dogs, 30 days): Fifteen
- dogs that developed grade 1 vomiting (number) (dogs with solid tumors; 40 dogs, 30 days): Eighteen
- dogs that developed grade 2 diarrhea (dogs with solid tumors; 40 dogs, 30 days): Six
- dogs with grade 1 increases in AST (dogs with solid tumors; 40 dogs, 30 days): Five
- dogs with grade 1 thrombocytopenia (dogs with solid tumors; 40 dogs, 30 days): 2 dogs
- dogs with grade 2 anorexia (dogs with solid tumors; 40 dogs, 30 days): 1 dogs
- dogs with grade 2 colitis (dogs with solid tumors; 40 dogs, 30 days): two
- dogs with grade 2 vomiting (dogs with solid tumors; 40 dogs, 30 days): 3 dogs
- dogs with grade 3 hypertension (dogs with solid tumors; 40 dogs, 30 days): 2 dogs
- dogs with grade 3 lameness (dogs with solid tumors; 40 dogs, 30 days): 1 dogs
- dogs with mild-to-moderate lameness (grade 1–2) (dogs with solid tumors; 40 dogs, 30 days): 10 dogs
- dogs with more than one episode of grade 1 diarrhea (dogs with solid tumors; 40 dogs, 30 days): 10 dogs
- dogs with more than one event of grade 1 vomiting (dogs with solid tumors; 40 dogs, 30 days): 5 dogs
- dogs with transient grade 1 elevations in ALT (dogs with solid tumors; 40 dogs, 30 days): 7 dogs
- dogs with grade 1 neutropenia (number) (dogs with solid tumors; after 1–3 weeks of therapy): 20/40
- share of AEs that were grade 1 or grade 2 (dogs with solid tumors; all AEs of the study): 86%
- share of AEs that were grade 2 (dogs with solid tumors; all AEs of the study): 12%
- dogs that developed hypertension (any grade) (dogs with solid tumors; blood pressure measured only in animals with signs): 3 dogs
- adverse event profile compared to the label dose of 3.25 mg/kg EOD (dogs with solid tumors; dog, in vivo): substantially reduced adverse event profile
- dogs with grade 3 AST elevation (dogs with solid tumors; end of study period): 1 dogs
- dogs with weight loss (dogs with solid tumors; grade 1 event): 3 dogs
- dogs with lethargy (number) (dogs with solid tumors; grade 1 or 2, 40 dogs, 30 days): 13 dogs
- dogs with lethargy (percent) (dogs with solid tumors; grade 1 or 2, 40 dogs, 30 days): 32.5%
- dogs requiring a dose modification (dogs with solid tumors; initiated at 2.5 mg/kg): five
- dogs requiring a dose modification (dogs with solid tumors; initiated at 2.75 mg/kg): three
- Alopecia, Grade 1 (dogs with solid tumors; [4]): 1
- Anemia, Grade 1 (dogs with solid tumors; [4]): 13
- Anorexia, Grade 1 (dogs with solid tumors; [4]): 15
- Anorexia, Grade 2 (dogs with solid tumors; [4]): 1
- Colitis, Grade 2 (dogs with solid tumors; [4]): 2
- Constipation, Grade 1 (dogs with solid tumors; [4]): 1
- Cough, Grade 1 (dogs with solid tumors; [4]): 4
- Dermatitis, Grade 1 (dogs with solid tumors; [4]): 1
- Diarrhea, Grade 1 (dogs with solid tumors; [4]): 34
- Diarrhea, Grade 2 (dogs with solid tumors; [4]): 6
- Epistaxis, Grade 1 (dogs with solid tumors; [4]): 3
- Fever, Grade 2 (dogs with solid tumors; [4]): 1
- Hand-foot syndrome, Grade 1 (dogs with solid tumors; [4]): 1
- Hypertension, Grade 1 (dogs with solid tumors; [4]): 1
- Hypertension, Grade 3 (dogs with solid tumors; [4]): 2
- Hypopigmentation, Grade 1 (dogs with solid tumors; [4]): 2
- Ileus, Grade 3 (dogs with solid tumors; [4]): 1
- Increase ALP, Grade 1 (dogs with solid tumors; [4]): 9
- Increase ALP, Grade 2 (dogs with solid tumors; [4]): 2
- Increase ALP, Grade 3 (dogs with solid tumors; [4]): 1
- Increase ALT, Grade 1 (dogs with solid tumors; [4]): 7
- Increase ALT, Grade 3 (dogs with solid tumors; [4]): 1
- Increase ALT, Grade 4 (dogs with solid tumors; [4]): 1
- Increase AST, Grade 1 (dogs with solid tumors; [4]): 5
- Increase AST, Grade 3 (dogs with solid tumors; [4]): 1
- Increase BUN, Grade 1 (dogs with solid tumors; [4]): 9
- Increase BUN, Grade 2 (dogs with solid tumors; [4]): 1
- Increase CK, Grade 1 (dogs with solid tumors; [4]): 2
- Lameness, Grade 1 (dogs with solid tumors; [4]): 6
- Lameness, Grade 2 (dogs with solid tumors; [4]): 8
- Lameness, Grade 3 (dogs with solid tumors; [4]): 1
- Lethargy, Grade 1 (dogs with solid tumors; [4]): 15
- Lethargy, Grade 2 (dogs with solid tumors; [4]): 2
- Neutropenia, Grade 1 (dogs with solid tumors; [4]): 20
- Neutropenia, Grade 2 (dogs with solid tumors; [4]): 1
- Ocular discharge, Grade 1 (dogs with solid tumors; [4]): 3
- Pancreatitis, Grade 3 (dogs with solid tumors; [4]): 1
- Panting, Grade 1 (dogs with solid tumors; [4]): 3
- Protein losing nephropathy, Grade 1 (dogs with solid tumors; [4]): 4
- Pruritus, Grade 1 (dogs with solid tumors; [4]): 1
- Thrombocytopenia, Grade 1 (dogs with solid tumors; [4]): 2
- Vomiting, Grade 1 (dogs with solid tumors; [4]): 23
- Vomiting, Grade 2 (dogs with solid tumors; [4]): 3
- Weight loss, Grade 1 (dogs with solid tumors; [4]): 3
- all adverse events, Grade 1 (total) (dogs with solid tumors; [4]): 188
- all adverse events, Grade 2 (total) (dogs with solid tumors; [4]): 27
- all adverse events, Grade 3 (total) (dogs with solid tumors; [4]): 8
- all adverse events, Grade 4 (total) (dogs with solid tumors; [4]): 1
- lethargy, grade 1 episodes among the affected dogs (dogs with solid tumors; remainder grade 2): 11
- dogs with depigmentation and thinning of the footpads in all 4 limbs (dogs with solid tumors; resolved after 1 week discontinuation): One
- weight loss, percent of initial recorded body weight (dogs with solid tumors; the 3 affected dogs): 5-10%
- dogs with dose changed (drug holiday and/or dose reduction), number (dogs with solid tumors; throughout the study period): 8 dogs
- dogs with dose changed (drug holiday and/or dose reduction), percent (dogs with solid tumors; throughout the study period): 20%
- patients that developed protein losing nephropathy (PLN) (dogs with solid tumors; without an apparent cause): 4 patients
- dogs with dose changed (drug holiday and/or dose reduction) (dogs with MCT; 3.25 mg/kg): 48.3%
- dogs that had a dose reduction due to AEs (dogs with MCT): approximately 20%
- plasma concentration threshold for receptor (target) inhibition in vivo [2]: 40 ng/mL
- course of presumed Cmax plasma concentration ([3]; EOD regimen, levels out by day 30): increased gradually in most dogs over the first 2 weeks of dosing
- dogs with Cmax at 12 hours (number) ([3]; day 30): 12 dogs
- reported Cmax as percent of the 12 hour concentration ([3]; day 30, the 12 dogs with Cmax at 12 hours): 51% to 98%
- Cmax ([3]; all dose ranges above 2.4 mg/kg, days 0, 7, 14, 30, read-out: median Cmax): > 40 ng/mL
- Cmax ([3]; dose ranges 2.4-2.9 mg/kg EOD, by day 30, read-out: mean presumed Cmax): 100 to 200 ng/mL
- Median plasma concentration measured at 6 or 8 hours, level after first two weeks ([3]; dogs dosed 2.4-2.9 mg/kg EOD): 100 to 120 ng/mL
- difference among dosing groups in 6 or 8 hour drug concentrations (presumed Cmax) ([3]; dogs dosed 2.4-2.9 mg/kg, each time point): no significant difference
- plasma drug concentration relative to the other dose groups ([3]; dogs dosed at 2.30-2.39 mg/kg (3 dogs)): lower concentrations of drug at all time points
- average 6–8 hr plasma concentration ([3]; dogs with solid tumors, 2.4-2.9 mg/kg every other day): 100 to 120 ng/mL
